Earlier results, collected in patent US6773669B1, “Flow electroporation chamber and method” (Maxcyte, Inc., priority 1995, dated 2004).

Assays:
[1] = experimental animals; DPG or precursors of DPG; transient
hemoglobin [2] = molecular target: T1, hemoglobin (Homo sapiens, UniProt P68871); conditions: pH 7.4, 37 degrees C; J. Biol. Chem. 1975
hemoglobin [3] = molecular target: T1, hemoglobin; conditions: higher than DPG; Benesch et al. 1977

T1 sequence (P68871 2-147 limits assumed): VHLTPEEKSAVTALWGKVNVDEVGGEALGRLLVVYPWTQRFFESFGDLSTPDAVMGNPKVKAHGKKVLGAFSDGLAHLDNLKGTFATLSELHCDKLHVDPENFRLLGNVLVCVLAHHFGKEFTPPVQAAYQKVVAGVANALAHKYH
T1 sequence (P69905 2-142 partner limits assumed): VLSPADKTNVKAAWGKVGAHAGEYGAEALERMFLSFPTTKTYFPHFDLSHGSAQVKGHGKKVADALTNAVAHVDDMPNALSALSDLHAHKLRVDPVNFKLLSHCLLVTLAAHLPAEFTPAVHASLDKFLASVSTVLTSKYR

For `O=C(O)C(COP(=O)(O)O)OP(=O)(O)O` (stereo not drawn) [DPG, 2,3-diphosphoglycerate], the “duration of elevation of oxygen deposition” value [1] is given as 6 to 12 h.

For `O=P(O)(O)O[C@H]1[C@H](OP(=O)(O)O)[C@@H](OP(=O)(O)O)[C@H](OP(=O)(O)O)[C@@H](OP(=O)(O)O)[C@H]1OP(=O)(O)O` [IHP, inositol hexaphosphate], the P50 of hemoglobin (hemoglobin [2]) is listed as ≤ 96.4 mm Hg and the “affinity to hemoglobin relative to DPG” value (hemoglobin [3]) is listed as 1000 fold.
